Each structure is given as a SMILES string.

Common to all, as to format: in vivo
Assay [1] relates to larvae of the southern green stink bug (Nezara viridula). The assay can be described thus: Nezara viridula spray test. The note with it: 96 h, 500 g/ha, barley plants, after 4 days. The procedure:
Nezara viridula—Spray Test
(§1) Solvent: 78.0 parts by weight of acetone • • 1.5 parts by weight of dimethylformamide
(§2) Emulsifier: alkylarylpolyglycol ether
To produce a suitable preparation of active compound, 1 part by weight of active compound is mixed with the stated amount of solvent, and the concentrate is diluted with water, containing an emulsifier concentration of 1000 ppm, to the desired concentration. Further test concentrations are prepared by dilution with emulsifier containing water.
Barley plants (Hordeum vulgare) infested with larvae of the southern green stink bug (Nezara viridula) are sprayed with a test solution containing the desired concentration of the active ingredient.
After 4 days mortality in % is determined. 100% means all the stink bugs have been killed; 0% means none of the stink bugs have been killed.

Assay [2] relates to adult cat fleas (Ctenocephalides felis). The assay can be described thus: Ctenocephalides felis in-vitro contact test, adult cat flea. The note with it: after 48 hours, read-out: efficacy (fleas dead or moribund); for pest or weed control at 1 µg/cm2, 100 g/ha: 1 μg/cm^2 (=100 g/ha); for pest or weed control at 5 µg/cm2, 500 g/ha: 5 μg/cm^2 (=500 g/ha). The method, boiled down:
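Acetone solution coated onto glass tube walls; 900 ppm gives 5 μg/cm². Once dry, 5–10 adult fleas per tube held at room temperature for 48 h. Efficacy (%) is the share of fleas dead or moribund, i.e. unable to climb away on a 45–50° C heating plate.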

Assay [3] relates to larvae of the banded cucumber beetle (Diabrotica balteata). The assay can be described thus: Diabrotica balteata spray test. The settings on record: 168 h, after 7 days, read-out: efficacy (seedling growth); for pest or weed control at 6.4 µg/disc, 20 g/ha: 20 g/ha (=6.4 μg/well); for pest or weed control at 32 µg/disc, 100 g/ha: 100 g/ha (=32 μg/well). The method, boiled down: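 Efficacy was read 7 days after infesting each unit with 10–20 banded cucumber beetle larvae, as % of seedlings growing like untreated, uninfested controls. Before infestation, wheat seeds germinated 1 day on agar (5 per well) were sprayed with the active ingredient. The active was formulated in acetone/DMF and diluted in water containing emulsifier.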

Assay [4] has as its system brown planthopper (Nilaparvata lugens). The assay can be described thus: Nilaparvata lugens spray test. The settings on record: 96 h, 500 g/ha, rice plants, after 4 days. How it is done:
Nilaparvata lugens—Spray Test
as §1, §2
To produce a suitable preparation of active compound, 1 part by weight of active compound is mixed with the stated amount of solvents and is diluted with water, containing an emulsifier concentration of 1000 ppm, to the desired concentration. Further test concentrations are prepared by dilution with emulsifier containing water.
Rice plants (Oryza sativa) are sprayed with a preparation of the active ingredient of the desired concentration and the plants are infested with the brown planthopper (Nilaparvata lugens).
After 4 days mortality in % is determined. 100% means all planthoppers have been killed and 0% means none of the planthoppers have been killed.

Assay [5] has as its system adult brown dog ticks (Rhipicephalus sanguineus). The assay can be described thus: Rhipicephalus sanguineus in-vitro contact test, adult brown dog ticks. The note with it: 48 h, after 48 hours, read-out: efficacy (ticks dead or moribund); for pest or weed control at 5 µg/cm2, 500 g/ha: 5 μg/cm^2 (=500 g/ha); for pest or weed control at 1 µg/cm2, 100 g/ha: 1 μg/cm^2 (=100 g/ha). Summed up:
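Acetone solution coated on glass tube inner walls (900 ppm, giving 5 μg/cm^2); after drying, 5–10 adult ticks added and kept 48 h at room temperature. Efficacy scored as percent dead or moribund, i.e., ticks unable to climb away on a 45–50 °C heating plate within 5 min.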

Assay [6] relates to fall armyworm larvae (Spodoptera frugiperda). The assay can be described thus: Spodoptera frugiperda spray test. The note with it: 168 h, maize leaf sections, after 7 days. The method, boiled down: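 Percent larval kill read at day 7, from 0% (no caterpillars dead) to 100% (all dead). Larvae were placed on dried Zea mays leaf discs previously sprayed with test preparations made from an acetone/DMF solution diluted in 1000 ppm emulsifier-containing water.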

Assay [7] has as its system Rhipicephalus (Boophilus) microplus larvae (strain Parkhurst, resistant against synthetic pyrethroids). The assay can be described thus: Rhipicephalus (Boophilus) microplus in-vitro contact test, larval cattle tick. The settings on record: after 48 hours, read-out: efficacy (larvae dead or moribund); for pest or weed control at 1 µg/cm2, 100 g/ha: 1 μg/cm^2 (=100 g/ha); for pest or weed control at 5 µg/cm2, 500 g/ha: 5 μg/cm^2 (=500 g/ha). Summed up: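 Pyrethroid-resistant larvae (strain Parkhurst), 20–50 per tube, exposed by contact to a dried acetone film of compound (5 μg/cm² at 900 ppm) for 48 h at 27 °C and 85% humidity. Percent dead or moribund larvae scored from negative geotactic behaviour.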

As a reminder, the mortality is the share of the test organisms that died. Turning to `CCN(C)C(=O)c1cnc(-c2nccnc2C(C)N(CC2CC2)C(=O)c2cc(C(F)(F)F)cc(C(F)(F)F)c2)s1` (racemic) [Example I-83, (rac)-2-{3-[1-{[3,5-Bis(trifluoromethyl)benzoyl](cyclopropylmethyl)amino}ethyl]pyrazin-2-yl}-N-ethyl-N-methyl-1,3-thiazole-5-carboxamide], the mortality at 500 g/ha in assay [1] and in assay [4] was 100% in each case. The pest or weed control at 1 µg/cm2, 100 g/ha in assay [2] and in assay [7] was 100% throughout. In addition, the pest or weed control at 5 µg/cm2, 500 g/ha in assay [2] turned out to be 100%; in assay [5], 80%; in assay [7] it was 100%. In assay [3], the pest or weed control at 6.4 µg/disc, 20 g/ha is 100%. Besides, in assay [3], the pest or weed control at 32 µg/disc, 100 g/ha turned out to be 100%. This molecule registered a mortality at 100 g/ha in assay [6] of 100%.

`CC(NC(=O)c1cc(Cl)cc(C(F)(F)F)c1)c1nccnc1-n1cc(C(=O)N(C)CC2CC2)cn1` (racemic) [Example I-132, (rac)-1-(3-{1-[3-Chloro-5-(trifluoromethyl)benzamido]ethyl}pyrazin-2-yl)-N-(cyclopropylmethyl)-N-methyl-1H-pyrazole-4-carboxamide]: the mortality at 500 g/ha in assay [1] and in assay [4] was 100% throughout. Besides, the pest or weed control at 1 µg/cm2, 100 g/ha in assay [2], in assay [5] and in assay [7] was 100% each time. The pest or weed control at 5 µg/cm2, 500 g/ha in assay [2], in assay [5] and in assay [7] was 100% in each case. Further, in assay [3], the pest or weed control at 6.4 µg/disc, 20 g/ha is 100%. Moreover, the pest or weed control at 32 µg/disc, 100 g/ha in assay [3] turned out to be 100%. In addition, the mortality at 100 g/ha in assay [6] was determined as 100%.

`CC(NC(=O)c1cc(C(F)F)cc(C(F)F)c1)c1nccnc1-c1ncc(C(=O)N(C)CC2CC2)s1` (racemic) [Example I-141, (rac)-2-(3-{1-[3,5-Bis(difluoromethyl)benzamido]ethyl}pyrazin-2-yl)-N-(cyclopropylmethyl)-N-methyl-1,3-thiazole-5-carboxamide]: the mortality at 500 g/ha in assay [1] and in assay [4] was 100% each time. The pest or weed control at 5 µg/cm2, 500 g/ha in assay [2] amounted to 100%; in assay [7], 90%. In addition, the pest or weed control at 32 µg/disc, 100 g/ha in assay [3] worked out at 100%. In assay [6], this molecule gave a mortality at 100 g/ha of 100%. In addition, in assay [7], the pest or weed control at 1 µg/cm2, 100 g/ha stood at 100%.

As for `CC(NC(=O)c1cc(Br)cc(OC(F)(F)F)c1)c1nccnc1-n1cc(C(=O)N(C)CC2CC2)cn1` (racemic) [Example I-134, (rac)-1-(3-{1-[3-Bromo-5-(trifluoromethoxy)benzamido]ethyl}pyrazin-2-yl)-N-(cyclopropylmethyl)-N-methyl-1H-pyrazole-4-carboxamide], the mortality at 500 g/ha in assay [1] and in assay [4] was 100% each time. Also, the pest or weed control at 1 µg/cm2, 100 g/ha in assay [2] came to 80%; in assay [5], 100%; in assay [7], 100%. Moreover, the pest or weed control at 5 µg/cm2, 500 g/ha in assay [2], in assay [5] and in assay [7] was 100% throughout. The pest or weed control at 6.4 µg/disc, 20 g/ha in assay [3] was 100%. For the same molecule, the pest or weed control at 32 µg/disc, 100 g/ha in assay [3] came out at 100%. The molecule also showed a mortality at 100 g/ha in assay [6] of 100%.

(Values after patent US12583851B2, “Heteroaryl-substituted pyrazine derivatives as pesticides” (Elanco Animal Health GmbH, priority 2019, dated 2026).)
